Laboratory results published in article PMC6499816, “Molecular determinants regulating selective binding of autophagy adapters and receptors to ATG8 proteins” (Nature Communications, 2019).
Where two headings read alike, the source gives them in different places. Ends that are not written are not given here.

Tests used:
LC3C = target: T1, LC3C (Homo sapiens, UniProt Q9BXW4); test: BLI, LIR peptide binding to LC3C; conditions: read-out: Kd (best-fit value)
T1 construct: insertion of full-length human GABARAP, GABARAP-L1, LC3A, and LC3C, and EcoRI and NotI restrictions sites for cloning of LC3B and GABARAP-L2; GST (followed by 3C protease site) (N); made in house; host or cells: bacteria (E. coli BL21 (DE3) pLysS is stated for the GST-ATG8 proteins of the overlay assay)
Experimental: (§1) For recombinant protein expression in bacteria, a modified plasmid of pGEX-6P2 (GE Healthcare) (referred to as pAL) containing an N-terminal […] followed by a 3C protease cleavage site was used.
(§2) Expression was induced by the addition of 0.5 mM IPTG at OD600 = 0.6 and cells were incubated at 25 °C overnight or at 37 °C for 5 h. Harvested cells were lysed in 50 mM Tris-HCl, pH 8.0, 500 mM NaCl, 0.1% Triton X-100, 0.4 mM 4-(2-aminoethyl)-benzenesulfonylfluoride HCl (AEBSF), and 15 µg/ml benzamidine. Fusion protein was batch adsorbed onto Glutathione-Sepharose 4B beads (GE Healthcare). After five washes with wash buffer (50 mM Tris, pH 8.0, 250 mM NaCl, 0.4 mM AEBSF, and 15 µg/ml benzamidine), fusion proteins were eluted in 50 mM Tris, pH 8.0, 2 mM L-glutathione reduced, 0.4 mM AEBSF, and 15 µg/ml benzamidine.
(§3) The biosensor tip surface immobilized with a ligand is incubated with an analyte in solution, resulting in an increase in optical thickness at the biosensor tip and a wavelength shift, which is a direct measure of the change in thickness. […] Ligand-loaded SA biosensors were then incubated with different concentrations of ATG8. All binding experiments were performed in solid-black 96-well plates containing 200 μl of solution (25 mM Tris, pH 7.5, 150 mM NaCl, 0.5 mM TCEP, 0.1% Tween-20, 1 mg/ml bovine serum albumin (BSA)) in each well at 25 °C with an agitation speed of 1000 rpm. Each measurement was repeated two to five times.
(§4) Peptides were synthesized using FMOC (fluorenylmethoxycarbonyl) solid-phase peptide chemistry by the Francis Crick Peptide Chemistry Technology Platform and are listed in Supplementary Table 2.

GABARAP = target: T2, GABARAP (Homo sapiens, UniProt O95166); test: BLI, LIR peptide binding to GABARAP; conditions: n=2 independent experiments, read-out: Kd (best-fit value)
T2 construct: insertion of full-length human GABARAP, GABARAP-L1, LC3A, and LC3C, and EcoRI and NotI restrictions sites for cloning of LC3B and GABARAP-L2; GST (followed by 3C protease site) (N); made in house; host or cells: bacteria (E. coli BL21 (DE3) pLysS is stated for the GST-ATG8 proteins of the overlay assay)
Experimental: as §1, §2, §3, §4

GABARAPL1 = target: T3, GABARAPL1 (Homo sapiens, UniProt Q9H0R8); test: BLI, LIR peptide binding to GABARAPL1
T3 construct: insertion of full-length human GABARAP, GABARAP-L1, LC3A, and LC3C, and EcoRI and NotI restrictions sites for cloning of LC3B and GABARAP-L2; GST (followed by 3C protease site) (N); made in house; host or cells: bacteria (E. coli BL21 (DE3) pLysS is stated for the GST-ATG8 proteins of the overlay assay)
Experimental: as §1, §2, §3, §4

GABARAPL2 = target: T4, GABARAPL2 (Homo sapiens, UniProt P60520); test: BLI, LIR peptide binding to GABARAPL2; conditions: read-out: Kd (best-fit value)
T4 construct: insertion of full-length human GABARAP, GABARAP-L1, LC3A, and LC3C, and EcoRI and NotI restrictions sites for cloning of LC3B and GABARAP-L2; GST (followed by 3C protease site) (N); made in house; host or cells: bacteria (E. coli BL21 (DE3) pLysS is stated for the GST-ATG8 proteins of the overlay assay)
Experimental: as §1, §2, §3, §4

LC3A = target: T5, LC3A (Homo sapiens, UniProt Q9H492); test: Bio-layer interferometry (BLI), LIR peptide binding to LC3A; conditions: read-out: Kd (best-fit value)
T5 construct: insertion of full-length human GABARAP, GABARAP-L1, LC3A, and LC3C, and EcoRI and NotI restrictions sites for cloning of LC3B and GABARAP-L2; GST (followed by 3C protease site) (N); made in house; host or cells: bacteria (E. coli BL21 (DE3) pLysS is stated for the GST-ATG8 proteins of the overlay assay)
Experimental: as §1, §2, §3, §4

LC3B = target: T6, LC3B (Homo sapiens, UniProt Q9GZQ8); test: BLI, LIR peptide binding to LC3B; conditions: read-out: Kd (best-fit value)
T6 construct: insertion of full-length human GABARAP, GABARAP-L1, LC3A, and LC3C, and EcoRI and NotI restrictions sites for cloning of LC3B and GABARAP-L2; GST (followed by 3C protease site) (N); made in house; host or cells: bacteria (E. coli BL21 (DE3) pLysS is stated for the GST-ATG8 proteins of the overlay assay)
Experimental: as §1, §2
The biosensor tip surface immobilized with a ligand is incubated with an analyte in solution, resulting in an increase in optical thickness at the biosensor tip and a wavelength shift, which is a direct measure of the change in thickness. […] Ligand-loaded SA biosensors were then incubated with different concentrations of ATG8. […]

[1] = fit of response vs GABARAP concentration (μM)
[2] = fit of response vs GABARAPL1 concentration (μM), n=2 independent experiments, read-out: Kd (best-fit value)
[3] = Fig. 4c, fit of response vs GABARAP concentration
[4] = Fig. 4c, fit of response vs GABARAPL1 concentration, n=2 independent experiments, read-out: Kd (best-fit value)

T3 sequence (Q9H0R8 whole entry): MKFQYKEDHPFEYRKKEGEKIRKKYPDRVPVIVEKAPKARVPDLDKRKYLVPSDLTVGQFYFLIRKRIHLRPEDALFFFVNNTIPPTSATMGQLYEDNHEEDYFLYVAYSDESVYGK
T2 sequence (O95166 whole entry): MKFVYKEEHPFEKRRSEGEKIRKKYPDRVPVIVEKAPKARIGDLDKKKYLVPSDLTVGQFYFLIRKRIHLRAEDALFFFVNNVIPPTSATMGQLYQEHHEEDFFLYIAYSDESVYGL
T4 sequence (P60520 whole entry): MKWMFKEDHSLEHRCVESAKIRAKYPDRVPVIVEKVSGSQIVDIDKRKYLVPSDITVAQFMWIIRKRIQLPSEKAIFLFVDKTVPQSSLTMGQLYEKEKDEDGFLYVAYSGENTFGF
T1 sequence (Q9BXW4 whole entry): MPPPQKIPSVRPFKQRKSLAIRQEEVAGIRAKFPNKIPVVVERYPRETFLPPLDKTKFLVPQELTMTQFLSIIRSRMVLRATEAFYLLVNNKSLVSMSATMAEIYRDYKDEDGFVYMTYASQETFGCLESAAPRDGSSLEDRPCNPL

Row | Molecule | Kd (LC3C) [nM] | Kd (GABARAP; [1]) [µM] | Kd (GABARAPL1; [2]) [µM] | Kd (GABARAPL2) [nM] | Kd (LC3A) [µM] | Kd (GABARAP; [3]) [µM] | Kd (GABARAPL1; [4]) [µM] | Kd (LC3B) [µM] | Kd (GABARAPL1; immobilised biotinylated LIR peptide, pH 7.5, 25 °C, mean ± s.d., n = 2–4, pictures print no unit, µM as, read-out: Kd, LIR peptide to GABARAPL1) [µM]
1 | DDFVMVPAQFPGDLV [ULK1 (aa 355-369)] | 7840 | 0.288 | 0.243 | 2210 | – | – | – | – | –
2 | SQKSDEEDFDIIEDLPLKLTI [PCM1 V1956D/ K1957I/ V1958I] | 2350 | – | – | – | 4.61 | 1.39 | 0.907 | – | –
3 | SQKSDEEDFVKVEDLALKLTI [PCM1 P1962A] | 10800 | – | – | 10500 | – | 0.994 | 0.879 | – | –
4 | SQKSDEEDFDKVEDLPLKLTI [PCM1 V1956D] | – | – | – | – | – | 7.72 | 5.19 | – | –
5 | SQKSDEEDFVKVTDLPLKLTI [PCM1 E1959T] | – | – | – | – | – | – | 2.89 | – | –
6 | DSSCDTDDFVMVPAQF [ULK1 (aa 349-364)] | 2230 | – | 0.161 | 534 | 8.37 | – | – | – | –
7 | YRPPDDAVFDIITDEELCQIQ [FYCO1 WT] | 3040 | – | – | – | 0.778 | 1.73 | 0.9 | 1.13 | –
8 | SQKSDEEDFVKIEDLPLKLTI [PCM1 V1959I] | 6940 | – | – | 7580 | – | 1.46 | 1.07 | – | –
9 | SQKSDEEDFVIVEDLPLKLTI [PCM1 K1967I] | 384 | – | – | – | 3.93 | – | 0.131 | – | –
10 | SQKSDEEDFVKIEDLPLKLTI [Γ3] | – | – | – | – | – | – | – | – | 1.1 ± 0.1
11 | DSSCDTDDFVMV [ULK1 (aa 349-360)] | 2210 | 0.218 | 0.22 | 1090 | 2.92 | – | – | 8.47 | –
12 | CSCC[C@H](NC(=O)[C@@H](NC(=O)[C@H](Cc1ccccc1)NC(=O)[C@H](CC(=O)O)NC(=O)[C@H](CC(=O)O)NC(=O)[C@@H](NC(=O)[C@@H](N)CC(=O)O)[C@@H](C)O)C(C)C)C(=O)N[C@H](C(=O)N1CCC[C@H]1C(=O)N[C@@H](C)C(=O)N[C@@H](CCC(N)=O)C(=O)N[C@@H](Cc1ccccc1)C(=O)N1CCC[C@H]1C(=O)NCC(=O)N[C@@H](CC(=O)O)C(=O)N[C@@H](CC(C)C)C(=O)N[C@H](C(=O)O)C(C)C)C(C)C [ULK1 (aa 353-369)] | – | – | 0.102 | 583 | – | – | – | – | –
13 | DSSCDTDDFVMVPA [ULK1 (aa 349-362)] | 2780 | 0.174 | 0.148 | 712 | 9.23 | – | – | – | –
